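Growth conditions: 96-well plates. Treatment: test compound, 48 hours, 5 concentrations. Analysis: linear interpolation between bracketing concentrations; unreached endpoints set to highest concentration. Here, GI50 denotes the concentration required for 50% inhibition of growth. TGI: total growth inhibition.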
How the values were obtained:
Assay in all cases: NCI tumour cell line growth inhibition, 48 h
786-0 renal = test system: 786-0 renal
A498 renal = test system: A498 renal
A549 NSCLC = test system: A549 NSCLC
ACHN renal = test system: ACHN renal
BT-549 breast = test system: BT-549 breast
CAKI-1 renal = test system: CAKI-1 renal
CCRF-CEM leukemia = test system: CCRF-CEM leukemia
COLO 205 colon = test system: COLO 205 colon
DU-145 prostate = test system: DU-145 prostate
EKVX NSCLC = test system: EKVX NSCLC
HCC-2998 colon = test system: HCC-2998 colon
HCT-116 colon = test system: HCT-116 colon
HCT-15 colon = test system: HCT-15 colon
HL-60(TB) leukemia = test system: HL-60(TB) leukemia
HOP-62 NSCLC = test system: HOP-62 NSCLC
HOP-92 NSCLC = test system: HOP-92 NSCLC
HS 578T breast = test system: HS 578T breast
HT29 colon = test system: HT29 colon
IGROV1 ovarian = test system: IGROV1 ovarian
K-562 leukemia = test system: K-562 leukemia
KM12 colon = test system: KM12 colon
LOX IMVI melanoma = test system: LOX IMVI melanoma
M14 melanoma = test system: M14 melanoma
MALME-3M melanoma = test system: MALME-3M melanoma
MCF7 breast = test system: MCF7 breast
MDA-MB-231 breast = test system: MDA-MB-231 breast
MDA-MB-435 = test system: MDA-MB-435
MOLT-4 leukemia = test system: MOLT-4 leukemia
NCI-H226 lung = test system: NCI-H226 lung
NCI-H23 lung = test system: NCI-H23 lung
NCI-H460 lung = test system: NCI-H460 lung
NCI-H522 lung = test system: NCI-H522 lung
NCI/ADR-RES ovarian = test system: NCI/ADR-RES ovarian
OVCAR-4 ovarian = test system: OVCAR-4 ovarian
OVCAR-5 ovarian = test system: OVCAR-5 ovarian
OVCAR-8 ovarian = test system: OVCAR-8 ovarian
PC-3 prostate = test system: PC-3 prostate
RPMI-8226 leukemia = test system: RPMI-8226 leukemia
RXF 393 renal = test system: RXF 393 renal
SF-268 CNS = test system: SF-268 CNS
SF-295 CNS = test system: SF-295 CNS
SF-539 CNS = test system: SF-539 CNS
SK-MEL-28 melanoma = test system: SK-MEL-28 melanoma
SK-MEL-5 melanoma = test system: SK-MEL-5 melanoma
SK-OV-3 ovarian = test system: SK-OV-3 ovarian
SN12C renal = test system: SN12C renal
SNB-19 CNS = test system: SNB-19 CNS
SNB-75 CNS = test system: SNB-75 CNS
SR leukemia = test system: SR leukemia
SW-620 colon = test system: SW-620 colon
T-47D breast = test system: T-47D breast
TK-10 renal = test system: TK-10 renal
U251 CNS = test system: U251 CNS
UACC-257 melanoma = test system: UACC-257 melanoma
UACC-62 melanoma = test system: UACC-62 melanoma
UO-31 renal = test system: UO-31 renal

## CC(=O)/C(N=Nc1ccc2oc(=O)ccc2c1)=C(\C)O
786-0 renal
  GI50: 5.31 µM
  TGI: 17.4 µM
A498 renal
  GI50: 2340 nM
  TGI: 10.4 µM
A549 NSCLC
  GI50: 3.2 µM
  TGI: 13.3 µM
ACHN renal
  GI50: 553 nM
  TGI: 11.9 µM
BT-549 breast
  GI50: 3.12 µM
  TGI: 8.52 µM
CAKI-1 renal
  GI50: 2160 nM
  TGI: 14.6 µM
CCRF-CEM leukemia
  GI50: 1650 nM
  TGI: 13.4 µM
COLO 205 colon
  GI50: 1760 nM
  TGI: 3.39 µM
DU-145 prostate
  GI50: 4.71 µM
  TGI: 19 µM
EKVX NSCLC
  GI50: 2720 nM
  TGI: 15.1 µM
HCC-2998 colon
  GI50: 3.99 µM
  TGI: 15.7 µM
HCT-116 colon
  GI50: 2230 nM
  TGI: 12 µM
HCT-15 colon
  GI50: 495 nM
  TGI: 13.7 µM
HL-60(TB) leukemia
  GI50: 1120 nM
  TGI: 9.15 µM
HOP-62 NSCLC
  GI50: 3.62 µM
  TGI: 16.3 µM
HOP-92 NSCLC
  GI50: 2460 nM
  TGI: 7.43 µM
HS 578T breast
  GI50: 3.64 µM
  TGI: 19 µM
HT29 colon
  GI50: 2960 nM
  TGI: 12.7 µM
IGROV1 ovarian
  GI50: 2930 nM
  TGI: 16.3 µM
K-562 leukemia
  GI50: 528 nM
  TGI: 17 µM
KM12 colon
  GI50: 3.36 µM
  TGI: 13.7 µM
LOX IMVI melanoma
  GI50: 2920 nM
  TGI: 12.4 µM
M14 melanoma
  GI50: 2770 nM
  TGI: 15.7 µM
MALME-3M melanoma
  GI50: 3000 nM
  TGI: 13.6 µM
MCF7 breast
  GI50: 2490 nM
  TGI: 13 µM
MDA-MB-231 breast
  GI50: 4.77 µM
  TGI: 18.1 µM
MDA-MB-435
  GI50: 3.88 µM
  TGI: 15.5 µM
MOLT-4 leukemia
  GI50: 2660 nM
  TGI: 12.7 µM
NCI-H226 lung
  GI50: 2480 nM
  TGI: 15.2 µM
NCI-H23 lung
  GI50: 3.37 µM
  TGI: 15.8 µM
NCI-H460 lung
  GI50: 2110 nM
  TGI: 12.1 µM
NCI-H522 lung
  GI50: 2120 nM
  TGI: 10.8 µM
NCI/ADR-RES ovarian
  GI50: 290 nM
  TGI: 13.2 µM
OVCAR-4 ovarian
  GI50: 3.81 µM
  TGI: 18.7 µM
OVCAR-5 ovarian
  GI50: 5.04 µM
  TGI: 18.4 µM
OVCAR-8 ovarian
  GI50: 2720 nM
  TGI: 13.6 µM
PC-3 prostate
  GI50: 2730 nM
  TGI: 12.3 µM
RPMI-8226 leukemia
  GI50: 1890 nM
  TGI: 11.4 µM
RXF 393 renal
  GI50: 2990 nM
  TGI: 16.3 µM
SF-268 CNS
  GI50: 5.14 µM
  TGI: 21.1 µM
SF-295 CNS
  GI50: 2220 nM
  TGI: 12.7 µM
SF-539 CNS
  GI50: 4.11 µM
  TGI: 14.1 µM
SK-MEL-28 melanoma
  GI50: 4.53 µM
  TGI: 16.4 µM
SK-MEL-5 melanoma
  GI50: 2090 nM
  TGI: 4.92 µM
SK-OV-3 ovarian
  GI50: 4.31 µM
  TGI: 15.1 µM
SN12C renal
  GI50: 2580 nM
  TGI: 14.7 µM
SNB-19 CNS
  GI50: 3.39 µM
  TGI: 15 µM
SNB-75 CNS
  GI50: 5 µM
  TGI: 18.6 µM
SR leukemia
  GI50: 1670 nM
  TGI: 7.73 µM
SW-620 colon
  GI50: 3.15 µM
  TGI: 13.7 µM
T-47D breast
  GI50: 1840 nM
  TGI: 9.19 µM
TK-10 renal
  GI50: 2350 nM
  TGI: 12.7 µM
U251 CNS
  GI50: 2770 nM
  TGI: 12.5 µM
UACC-257 melanoma
  GI50: 3.36 µM
  TGI: 14.8 µM
UACC-62 melanoma
  GI50: 2640 nM
  TGI: 12.2 µM
UO-31 renal
  GI50: 355 nM
  TGI: 11.8 µM

Reference: PubChem BioAssay (NCI)
